Among the data in patent US11976058B2, “Aromatic derivatives, preparation methods, and medical uses thereof” (Bioardis LLC, priority 2019, dated 2024) are IC50 values, retold here.

For one experiment, the target named is T1, human FGFR4 (Homo sapiens, UniProt P22455).
T1 construct: human FGFR4 cytoplasmic domain (460-802); GST (N); purchased Carna Biosciences 08-136
The experiment in a line: FGFR4 enzymatic assay (HTRF KinEASE-TK). It is filed as biochemical. Conditions: wild-type human FGFR4 cytoplasmic domain (460-802), GST-tag; 60 min preincubation at 25° C.; ATP 200 μM; read-out: Potency (IC50), FGFR4 enzymatic assay. Put shortly: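 GST-tagged FGFR4 cytoplasmic domain (460-802) at 0.25 μg/ml, preincubated with compound 60 min at 25 °C in HEPES pH 7.0 buffer, then reacted 40 min at 37 °C with 0.3 μM biotin-TK peptide and 200 μM ATP. HTRF detection (665/612 nm) after 60 min; IC50 by four-parameter logistic fit.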
A general note: Time-resolved FRET reads energy transfer from a long-lived donor to a nearby acceptor.

Experiment [1] concerns MAPK phosphorylation in Hep3B cells stimulated with FGF19. Kind of experiment: FGFR4 pMAPK AlphaLISA SureFire Ultra assay. The format is cell-based. Conditions: serum-starved, compound 1 hour, FGF19 100 ng/ml for 4 hours, read-out: Potency (IC50), FGFR4 pMAPK AlphaLISA. The source says: Cell line: Hepatocellular carcinoma cell line Hep3B (ATCC, Cat #HB-8064).
In normal liver, circulating FGF19 drives liver cell proliferation and regulates bile acid production. However aberrant expression of FGF19 in the liver drives HCC tumorigenesis, upregulates MAPK phosphorylation in FGF19-amplified malignant liver cells. AlphaScreen SureFire technology allows the detection of phosphorylated proteins in cellular lysates in a highly sensitive, quantitative assay. In these assays, sandwich antibody complexes, which are only formed in the presence of analyte, are captured by AlphaScreen Donor and Acceptor beads, bringing them into close proximity. The excitation of the Donor bead provokes the release of singlet oxygen molecules that triggers a cascade of energy transfer in the Acceptor beads, resulting in the emission of light at 520-620 nm.
Hep3B cells were plated at a density of 1×10^4/ml cells in a 96-well plate (Corning #3599), with 100 uL per well of MEM Medium (Gibco Cat #11095-080) supplemented with 10% fetal bovine serum; 1% Penicillin-Streptomycin, and cultured overnight at 37° C., 5% CO2. Starve Hep3B cells in serum-free medium (SFM) supplemented with 0.2% BSA and incubate the cells again overnight at 37° C., 5% CO2. Various concentrations of the test compound (prepared in 2x SFM) were added to the wells of the cell plate and then incubated for 1 hour at 37° C., 5% CO2. 50 μL of FGF19 in SFM was added to each well of the cell plate with a final FGF19 concentration of 100 ng/ml, and cells treated with FGF19 were stimulated for 4 hours at 37° C., 5% CO2. 5 μL of freshly prepared Donor Mix and Acceptor Mix were sequentially added to the cell plate, each followed with 1 hour of incubation at 25° C., 5% CO2. Read the cell plate on an Alpha Technology-compatible plate reader at 570 nm AlphaScreen, using standard AlphaLISA settings. The percent (%) inhibition=((ZPE−Alpha-Signal)/(ZPE−HPE))*100% where the meanings of HPE and ZPE are as provided below.
HPE: Hundred Percent Effect, negative control well without FGF19 nor compound. Final concentration of DMSO is 0.1%.
ZPE: Zero Percent Effect, positive control well without compound. Final concentration of FGF19 is 100 ng/mL, DMSO is 0.1%.
The concentrations and percent inhibition values for a test compound were plotted and the concentration of the compound required to achieve 50% inhibition (IC50) was determined with a four-parameter logistic dose response equation. Dose-response curves were generated using Prism (GraphPad Software, La Jolla, CA, US) to calculate IC50 values for each compound tested.
(Bead proximity is the source of the signal in Alpha formats.)

The test system of a further experiment is Hep3B cells. The experiment in a line: Cell-based FGFR4 proliferation assay (CellTiter-Glo). Conditions: incubated with test compound for 3 days, CellTiter-Glo luminescence, read-out: Potency (IC50), Hep3B cell proliferation. The method, boiled down:
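Hep3B cells in MEM/10% FBS were seeded overnight, then exposed to serially diluted compound (DMSO) for 3 days at 37 °C, 5% CO2. Viable cells were quantified by CellTiter-Glo luminescence (ATP), and IC50 was fitted by four-parameter logistic from percent inhibition.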
For orientation: In ATP-based viability assays light output follows the ATP content of the culture.

Read-outs that look alike come from different tables or passages of the source.

T1 sequence (P22455 460-802): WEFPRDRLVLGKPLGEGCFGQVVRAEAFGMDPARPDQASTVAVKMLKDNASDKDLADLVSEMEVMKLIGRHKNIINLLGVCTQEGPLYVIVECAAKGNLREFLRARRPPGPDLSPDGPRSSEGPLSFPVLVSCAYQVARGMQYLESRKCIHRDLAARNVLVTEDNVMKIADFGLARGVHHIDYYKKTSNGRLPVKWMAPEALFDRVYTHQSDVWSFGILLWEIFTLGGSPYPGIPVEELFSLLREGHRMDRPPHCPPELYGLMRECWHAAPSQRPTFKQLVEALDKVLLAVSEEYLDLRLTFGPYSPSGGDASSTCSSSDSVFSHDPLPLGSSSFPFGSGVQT

In the case of `C=CC(=O)Nc1cnn(C)c1-c1n[nH]c2c1CCC(c1cc(OC)cc(OC)c1F)=C2` [Compound S5-P2, N-(5-(6-(2-fluoro-3,5-dimethoxyphenyl)-4,5-dihydro-1H-indazol-3-yl)-1-methyl-1H-pyrazol-4-yl)acrylamide], the IC50 at human FGFR4 is 10 to 100 nM; in experiment [1] (Homo sapiens, Hep3B) it was 10 to 100 nM; in the experiment with Hep3B cells (Homo sapiens, Hep3B, 72 h), > 100 nM.

As for `C=CC(=O)Nc1cnn(C)c1-c1n[nH]c2c1CCC1(C2)OCc2c(OC)cc(OC)c(F)c21` (stereo not drawn) [Compound S9, N-(5-(7′-fluoro-4′,6′-dimethoxy-1,4,5,7-tetrahydro-3′H-spiro[indazole-6,1′-isobenzofuran]-3-yl)-1-methyl-1H-pyrazol-4-yl)acrylamide], the IC50 is 10 to 100 nM at human FGFR4; > 100 nM in experiment [1] (Homo sapiens, Hep3B); > 100 nM in the experiment with Hep3B cells (Homo sapiens, Hep3B, 72 h).

`C=CC(=O)Nc1cn[nH]c1-c1n[nH]c2c1CCC[C@@H](c1c(F)c(OC)cc(OC)c1F)C2` [Compound S11-P2, (R)—N-(5-(7-(2,6-difluoro-3,5-dimethoxyphenyl)-1,4,5,6,7,8-hexahydrocyclohepta[c]pyrazol-3-yl)-1H-pyrazol-4-yl)acrylamide]: the IC50 (at human FGFR4; in experiment [1]; with Hep3B cells) was < 10 nM throughout.

As for `C=CC(=O)Nc1cnn(CC)c1-c1n[nH]c2c1CC[C@@H](c1c(F)c(OC)cc(OC)c1F)C2` [Compound S14-P1, (R)—N-(5-(6-(2,6-difluoro-3,5-dimethoxyphenyl)-4,5,6,7-tetrahydro-1H-indazol-3-yl)-1-ethyl-1H-pyrazol-4-yl) acrylamide], the IC50 on human FGFR4 is 10 to 100 nM; in experiment [1] (Homo sapiens, Hep3B), 10 to 100 nM; in the experiment with Hep3B cells (Homo sapiens, Hep3B, 72 h), > 100 nM.

Take `C=CC(=O)Nc1cnn(CC)c1-c1n[nH]c2c1CC[C@H](c1c(F)c(OC)cc(OC)c1F)C2` [Compound S14-P2, (S)—N-(5-(6-(2,6-difluoro-3,5-dimethoxyphenyl)-4,5,6,7-tetrahydro-1H-indazol-3-yl)-1-ethyl-1H-pyrazol-4-yl) acrylamide]: the IC50 is < 10 nM at human FGFR4; < 10 nM in experiment [1] (Homo sapiens, Hep3B); 10 to 100 nM with Hep3B cells (Homo sapiens, Hep3B, 72 h).
